# Laboratory results from patent EP0728012B1, “NOVEL GnRH ANALOGUES WITH ANTITUMOUR EFFECTS AND PHARMACEUTICAL COMPOSITIONS THEREOF” (Lovas, Sandor, priority 1994, dated 1996).
# Key:
# [1] = test system: MDA-MB-231 human mammary carcinoma cell line; experiment: Inhibition of colony formation (dose-survival relation, Example 18); assay type: cell-based
# [2] = test system: Ishikawa human endometrium carcinoma cell line; experiment: as above; assay type: cell-based
# [3] = test system: MCF-7 human mammary carcinoma cell line; experiment: as above; assay type: cell-based; conditions: treated once
# [4] = test system: PC3 human prostate carcinoma cell line; experiment: as above; assay type: cell-based
# Ishikawa = conditions: 30 µM active substance, conjugate, treated once
# Protocol: The procedure of treatment was as follows. After trypsinization the cells, 400,000 cells of MCF-7, MDA-MB-231 human mammary carcinoma, PC3 human prostate carcinoma or Ishikawa human endometrium tumour each were passed into Petri dishes of 10 cm in diameter. Starting from the day following transfer, the cells were treated with the substances to be tested in solution prepared with the nutrient medium during the exponential growth phase. The cultures were treated with 1 to 50 µM (calculated for the total volume of the culture) or MI-1544 GnRH antagonist, MI-1892 chicken GnRH antagonist or SJ-1004 GnRH […] on the 7th day.
# MXT mouse mammary tumour = experiment: In vivo antitumour effect on mice bearing MXT mouse mammary tumour; set-up: species or system CBA/Ca mice
# Protocol: The MXT mouse mammary carcinoma contains ER and PgR proteins; furthermore, it contains also GnRH receptors; therefore, this in vivo tumour model is suitable for studying both the direct and indirect effects. The treatment of mice bearing MXT mammary tumour was commenced on the day following transplantation. […] Table VI The animals were daily treated in s.c. route starting from the day following transplantation of MXT mouse mammary tumour. […] MI-1544: 75 µg/day/animal; MI-1892: 75 µg/day/animal.
# [5] = test system: cytosolic progesterone receptor (cPgR); conditions: animals bearing MCF-7 xenografts
# MDA-MB-231 xenograft = experiment: In vivo antitumour effect on MDA-MB-231 xenograft in immunosuppressed mice; set-up: species or system CBA/Ca mice
# Protocol: (§1) The immunosuppression of mice was carried out by using the method of Steel et al. [Br. J. Cancer, 37, 224-230 (1978)]. Immunosuppression and xeno-transplantation
# (§2) CBA-Ca female mice of about 6 weeks old were thymectomized and then, after one week, they were irradiated with 60Co (whole body irradiation; the lethal dose is 9.5 Gray). Within 24 hours 3 to 5 x 10^5 myelocytes were injected into the animals. Beneath the skin of the immunosuppressed mice 2 x 10^7 tumour cells or, in the case of later passages, […] were implanted. […] The treatment with steroid hormone was stopped by at least one week before beginning the investigation.
# (§3) Recent investigations have begun on 28 animals bearing MCF-7 xenograft and on 28 animals bearing MDA-MB-231 xenograft. On animals bearing MCF-7 tumour the treatment was commenced in the 5th week following xeno-transplantation; the tumour volume was 205 to 225 mm^3. On animals bearing MDA-MB-231 tumour, the treatment was started in the 4th week after xeno-transplantation with a tumour volume of 140 to 150 mm^3. […] The control groups were daily treated with physiological saline s.c. (Each treated group consisting of 7 animals).
# A more recent study was started on 28 animals bearing MDA-MB-231 xenograft. The treatment was begun in the 4th or 5th week following xenotransplantation. The tumour volume was 0.165 to 0.194 cm^3. […] (For treatment of the control group, see the preceding Examples). Each group consisted of 7 animals.
# MCF-7 xenograft = experiment: In vivo antitumour effect on MCF-7 xenograft in immunosuppressed mice; set-up: species or system CBA/Ca mice; conditions: for Tumour volume as control (%): conjugates 1 x 50 µg; for Inhibition % (tumour growth): daily s.c.
# Protocol: as §1, §2
# In the case of MCF-7 tumours (xenografts) the examinations were carried out with passages being in the phase of the 37th and 38th, respectively, transplantations.
# In the case of mice bearing MCF-7 xenograft, the treatment was begun in the 4th week following xeno-transplantation.
# as §3
# [6] = MXT mouse mammary tumour, Treatment weeks: 13, 1x75 µg daily s.c.
# [7] = MXT mouse mammary tumour, Treatment weeks: 20, 1x75 µg daily s.c.
# [8] = MDA-MB-231 xenograft, after 9 week treatment, 100 µg daily s.c.
# [9] = Table V, treatment week 2, 1x100 µg daily s.c.
# [10] = Table V, treatment week 2, conjugates 1x50 µg daily s.c.
# [11] = Table V, treatment week 6, 1x100 µg daily s.c.
# [12] = Table V, treatment week 6, MI-1892 2x25 µg, conjugates 1x50 µg daily s.c.
# [13] = week 0, daily s.c., 1 x 100 µg series
# [14] = week 0, daily s.c., P-GFLG-1544 1 x 50 µg, P-GFLG-1892 1 x 75 µg
# [15] = week 1, daily s.c., 1 x 100 µg series
# [16] = week 1, daily s.c., P-GFLG-1544 1 x 50 µg, P-GFLG-1892 1 x 75 µg
# [17] = week 2, daily s.c., 1 x 100 µg series
# [18] = week 2, daily s.c., P-GFLG-1544 1 x 50 µg, P-GFLG-1892 1 x 75 µg
# [19] = week 3, daily s.c., 1 x 100 µg series
# [20] = week 3, daily s.c., P-GFLG-1544 1 x 50 µg, P-GFLG-1892 1 x 75 µg
# [21] = week 4, daily s.c., 1 x 100 µg series
# [22] = week 4, daily s.c., P-GFLG-1544 1 x 50 µg, P-GFLG-1892 1 x 75 µg
# [23] = week 5, daily s.c., 1 x 100 µg series
# [24] = week 5, daily s.c., P-GFLG-1544 1 x 50 µg, P-GFLG-1892 1 x 75 µg
# [25] = week 6, daily s.c., 1 x 100 µg series
# [26] = week 6, daily s.c., P-GFLG-1544 1 x 50 µg, P-GFLG-1892 1 x 75 µg
# [27] = week 7, daily s.c., 1 x 100 µg series
# [28] = after 6 week treatment, xenograft not given
substance,measurement,setting,value
"Ac-D-Trp^1,3,D-Cpa^2,{Lys(n-poly-(N-vinylpyrrolidone-co-maleic acid)-Gly-Phe-Leu-Gly]}^6,D-Ala^10-GnRH [P-GFLG-1544]",% Inhibition of colony formation,[1]; 10 µM,80%
same,% Inhibition of colony formation,[1]; 50 µM,100%
same,% Inhibition of colony formation,[2]; 50 µM,100%
same,inhibition of colony formation,[2]; 30 to 50 µM,100%
same,% Inhibition of colony formation,[3]; 10 µM (active substance),85%
same,% Inhibition of colony formation,[3]; 50 µM (active substance),100%
same,% Inhibition of colony formation,[4]; 10 µM,100%
same,% Inhibition of colony formation,[4]; 50 µM,100%
same,inhibition of colony formation,[4]; 30 to 50 µM,100%
same,% Inhibition of cell division (proliferation),Ishikawa,95%
same,Inhibition %,MXT mouse mammary tumour; [6],61%
same,Tumour volume as control (%),MXT mouse mammary tumour; [6],39%
same,Inhibition %,MXT mouse mammary tumour; [7],49%
same,Tumour volume as control (%),MXT mouse mammary tumour; [7],51%
same,Tumour volume (cm^3),"MXT mouse mammary tumour; day 9, 75 µg/day/animal s.c.",0.38 cm^3
same,Tumour volume as control (%),"MXT mouse mammary tumour; day 9, 75 µg/day/animal s.c.",55%
same,Tumour volume (cm^3),"MXT mouse mammary tumour; day 11, 75 µg/day/animal s.c.",0.74 cm^3
same,Tumour volume as control (%),"MXT mouse mammary tumour; day 11, 75 µg/day/animal s.c.",41%
same,Tumour volume (cm^3),"MXT mouse mammary tumour; day 13, 75 µg/day/animal s.c.",1.26 cm^3
same,Tumour volume as control (%),"MXT mouse mammary tumour; day 13, 75 µg/day/animal s.c.",39%
same,Tumour volume (cm^3),"MXT mouse mammary tumour; day 17, 75 µg/day/animal s.c.",2.43 cm^3
same,Tumour volume as control (%),"MXT mouse mammary tumour; day 17, 75 µg/day/animal s.c.",46%
same,Tumour volume (cm^3),"MXT mouse mammary tumour; day 18, 75 µg/day/animal s.c.",3.91 cm^3
same,Tumour volume as control (%),"MXT mouse mammary tumour; day 18, 75 µg/day/animal s.c.",52%
same,Tumour volume (cm^3),"MXT mouse mammary tumour; day 20, 75 µg/day/animal s.c.",4.74 cm^3
same,Tumour volume as control (%),"MXT mouse mammary tumour; day 20, 75 µg/day/animal s.c.",51%
same,Tumour volume (cm^3),"MXT mouse mammary tumour; day 24, 75 µg/day/animal s.c.",7.34 cm^3
same,Tumour volume as control (%),"MXT mouse mammary tumour; day 24, 75 µg/day/animal s.c.",58%
same,Tumour volume (cm^3),"MXT mouse mammary tumour; day 26, 75 µg/day/animal s.c.",9.03 cm^3
same,Tumour volume as control (%),"MXT mouse mammary tumour; day 26, 75 µg/day/animal s.c.",65%
same,decrease of the uterus cPgR level,[5],54%
same,animals that became tumour-free,"MDA-MB-231 xenograft; MDA-MB-231 xenograft, 100 µg daily s.c., 6th week of treatment",1 animals from 7
same,Volume (cm^3) of tumours,MDA-MB-231 xenograft; [8],1.618 ± 0.518 cm^3
same,Weight (g) of tumours,MDA-MB-231 xenograft; [8],0.94 ± 0.52 g
same,tumour-free animals,"MDA-MB-231 xenograft; MDA-MB-231 xenograft, end of the 6th week, first series",A tumour-free animal was found
same,Inhibition %,MDA-MB-231 xenograft; [9],29%
same,Tumour volume as control (%),MDA-MB-231 xenograft; [9],71%
same,Inhibition %,MDA-MB-231 xenograft; [10],23.5%
same,Tumour volume as control (%),MDA-MB-231 xenograft; [10],76.5%
same,Inhibition %,MDA-MB-231 xenograft; [11],53%
same,Tumour volume as control (%),MDA-MB-231 xenograft; [11],47%
same,Inhibition %,MDA-MB-231 xenograft; [12],40%
same,Tumour volume as control (%),MDA-MB-231 xenograft; [12],60%
same,Tumour volume (cm^3),MDA-MB-231 xenograft; [13],0.17 cm^3
same,Tumour volume as control (%),MDA-MB-231 xenograft; [13],101%
same,Tumour volume (cm^3),MDA-MB-231 xenograft; [14],0.15 cm^3
same,Tumour volume as control (%),MDA-MB-231 xenograft; [14],100%
same,Tumour volume (cm^3),MDA-MB-231 xenograft; [15],0.24 cm^3
same,Tumour volume as control (%),MDA-MB-231 xenograft; [15],105%
same,Tumour volume (cm^3),MDA-MB-231 xenograft; [16],0.21 cm^3
same,Tumour volume as control (%),MDA-MB-231 xenograft; [16],83%
same,Tumour volume (cm^3),MDA-MB-231 xenograft; [17],0.3 cm^3
same,Tumour volume as control (%),MDA-MB-231 xenograft; [17],72%
same,Tumour volume (cm^3),MDA-MB-231 xenograft; [18],0.21 cm^3
same,Tumour volume as control (%),MDA-MB-231 xenograft; [18],66%
same,Tumour volume (cm^3),MDA-MB-231 xenograft; [19],0.36 cm^3
same,Tumour volume as control (%),MDA-MB-231 xenograft; [19],65%
same,Tumour volume (cm^3),MDA-MB-231 xenograft; [20],0.24 cm^3
same,Tumour volume as control (%),MDA-MB-231 xenograft; [20],66%
same,Tumour volume (cm^3),MDA-MB-231 xenograft; [21],0.35 cm^3
same,Tumour volume as control (%),MDA-MB-231 xenograft; [21],53%
same,Tumour volume (cm^3),MDA-MB-231 xenograft; [22],0.28 cm^3
same,Tumour volume as control (%),MDA-MB-231 xenograft; [22],67%
same,Tumour volume (cm^3),MDA-MB-231 xenograft; [23],0.46 cm^3
same,Tumour volume as control (%),MDA-MB-231 xenograft; [23],49%
same,Tumour volume (cm^3),MDA-MB-231 xenograft; [24],0.33 cm^3
same,Tumour volume as control (%),MDA-MB-231 xenograft; [24],75%
same,Tumour volume (cm^3),MDA-MB-231 xenograft; [25],0.58 cm^3
same,Tumour volume as control (%),MDA-MB-231 xenograft; [25],47%
same,Tumour volume (cm^3),MDA-MB-231 xenograft; [26],0.36 cm^3
same,Tumour volume as control (%),MDA-MB-231 xenograft; [26],63%
same,Tumour volume (cm^3),MDA-MB-231 xenograft; [27],0.75 cm^3
same,Tumour volume as control (%),MDA-MB-231 xenograft; [27],59%
same,rate of tumour growth,"MCF-7 xenograft; MCF-7 xenograft, first study, conjugates 150 µg in every 3rd day, P-GFLG-OH daily s.c.",not influenced
same,decrease in the tumour volume in comparison to controls,"MCF-7 xenograft; MCF-7 xenograft, first study, end of 4th week, MI-1892 2 x 25 µg daily, conjugates 50 µg daily once",30%
same,tumour volume,"MCF-7 xenograft; MCF-7 xenograft, 4th week of treatment",1.806 cm^3
same,tumour-free animals,"MCF-7 xenograft; MCF-7 xenograft, 6th week",a tumour-free animal was found
same,Tumour volume as control (%),"MCF-7 xenograft; MCF-7 xenograft, treatment week 2",70%
same,Inhibition % (tumour growth),"MCF-7 xenograft; MCF-7 xenograft, treatment week 2, listed as 6. P-GFLG-1544",30%
same,Inhibition % (tumour growth),"MCF-7 xenograft; MCF-7 xenograft, treatment week 4",49%
same,Tumour volume as control (%),"MCF-7 xenograft; MCF-7 xenograft, treatment week 6, MI-1892 2 x 25 µg",51%
same,Inhibition % (tumour growth),"MCF-7 xenograft; MCF-7 xenograft, treatment week 6, listed as 6. P-GFLG-1544",49%
same,Volume (cm^3) of tumours,MCF-7 xenograft; [28],3.502 ± 0.321 cm^3
same,Weight (g) of tumours,MCF-7 xenograft; [28],4.8 ± 0.8 g
